# In ChEMBL document CHEMBL3046449, “Selective Herbicidal Activities of Ethyl 5-(4, 6-Dimethoxypyrimidin-2-ylcarbamoylsulfamoyl)-1-methylpyrazole-4-carboxylate and Its Related Compounds” (J Pestic Sci, 1990):
# How the values were obtained:
# Sagittaria pygmaea [1] = assay: Herbicidal activity against Sagittaria pygmaea assessed as growth inhibition measured after 2 days by pre-emergence activity assay; format: functional
# Echinochloa crus-galli [2] = assay: Herbicidal activity against Echinochloa crus-galli (barnyard grass) assessed as weed control in transplanted rice field at 30 g/ha treated after 3 days transplanting; format: functional
# Pontederia vaginalis [3] = assay: Herbicidal activity against Monochoria vaginalis assessed as growth inhibition in paddy condition under greenhouse at 5 g/ha measured after 18 days by preemergence activity assay; format: functional; conditions: pre-emergence, 432 h, read-out: GI
# Oryza sativa [4] = assay: Effect on Oryza sativa (rice) plant growth in transplanted Oryza sativa field assessed as plant height at 30 g/ha treated after 10 days transplanting; format: organism-based; conditions: in vivo, other, 240 h
# Alisma canaliculatum [5] = assay: Herbicidal activity against Alisma canaliculatum assessed as growth inhibition measured after 2 days by pre-emergence activity assay; format: functional
# Sagittaria pygmaea [6] = assay: Herbicidal activity against Sagittaria pygmaea assessed as weed control in transplanted rice field at 20 g/ha treated after 3 days transplanting; format: functional
# Cyperus serotinus [7] = assay: Herbicidal activity against Cyperus serotinus assessed as weed control in transplanted rice field at 20 g/ha treated after 7 days transplanting; format: functional
# Eleocharis kuroguwai [8] = assay: Herbicidal activity against Eleocharis kuroguwai assessed as growth inhibition treated 7 to 15 days after planting measured by post-emergence activity assay; format: functional
# Cyperus serotinus [9] = assay: Herbicidal activity against three to four-leaf stage Cyperus serotinus assessed as growth inhibition treated 7 to 15 days after planting measured by postemergence activity assay; format: functional
# Oryza sativa [10] = assay: Effect on Oryza sativa (rice) plant growth in transplanted Oryza sativa field assessed as plant height at 20 g/ha treated after 3 days transplanting; format: organism-based; conditions: in vivo, other, 72 h
# Pontederia vaginalis [11] = assay: Herbicidal activity against Monochoria vaginalis assessed as weed control in transplanted rice field at 20 g/ha treated after 3 days transplanting; format: functional
# Oryza sativa [12] = assay: Effect on Oryza sativa (rice) plant growth in transplanted Oryza sativa field assessed as number of tillers at 30 g/ha treated after 3 days transplanting; format: organism-based; conditions: in vivo, other, 72 h
# Alisma canaliculatum [13] = assay: Herbicidal activity against three to four-leaf stage Alisma canaliculatum assessed as growth inhibition treated 7 to 15 days after planting measured by post-emergence activity assay; format: functional
# Oryza sativa [14] = assay: Effect on Oryza sativa (rice) plant growth in transplanted Oryza sativa field assessed as number of tillers at 30 g/ha treated after 15 days transplanting; format: organism-based; conditions: in vivo, other, 360 h
# unidentified [15] = assay: Herbicidal activity against broadleaf weed assessed as weed control in transplanted rice field at 30 g/ha treated after 10 days transplanting; format: functional
# Echinochloa crus-galli [16] = assay: Herbicidal activity against Echinochloa crus-galli (barnyard grass) assessed as weed control in transplanted rice field at 30 g/ha treated after 10 days transplanting; format: functional
# Sagittaria pygmaea [17] = assay: Herbicidal activity against Sagittaria pygmaea assessed as weed control in transplanted rice field at 30 g/ha treated after 15 days transplanting; format: functional
# Echinochloa crus-galli [18] = assay: Herbicidal activity against Echinochloa crus-galli (barnyard grass) assessed as weed control in transplanted rice field at 30 g/ha treated after 7 days transplanting; format: functional
# [19] = test system: Schoenoplectiella juncoides; assay: Herbicidal activity against Schoenoplectiella juncoides assessed as growth inhibition measured after 2 days by preemergence activity assay; format: functional
# [20] = test system: Schoenoplectiella juncoides; assay: Herbicidal activity against Schoenoplectiella juncoides assessed as weed control in transplanted rice field at 20 g/ha treated after 7 days transplanting; format: functional
# Oryza sativa [21] = assay: Effect on Oryza sativa (rice) plant growth in transplanted Oryza sativa field assessed as number of tillers at 20 g/ha treated after 7 days transplanting; format: organism-based; conditions: in vivo, other, 168 h
# Echinochloa crus-galli [22] = assay: Herbicidal activity against Echinochloa crus-galli (barnyard grass) assessed as weed control in transplanted rice field at 30 g/ha treated after 15 days transplanting; format: functional
# Eleocharis kuroguwai [23] = assay: Herbicidal activity against Eleocharis kuroguwai assessed as growth inhibition measured after 2 days by pre-emergence activity assay; format: functional
# Pontederia vaginalis [24] = assay: Herbicidal activity against Monochoria vaginalis assessed as weed control in transplanted rice field at 20 g/ha treated after 7 days transplanting; format: functional
# Sagittaria pygmaea [25] = assay: Herbicidal activity against two-leaf stage Sagittaria pygmaea assessed as growth inhibition treated 7 to 15 days after planting measured by post-emergence activity assay; format: functional
# [26] = test system: Schoenoplectiella juncoides; assay: Herbicidal activity against Schoenoplectiella juncoides assessed as growth inhibition in paddy condition under greenhouse at 5 g/ha measured after 18 days by preemergence activity assay; format: functional; conditions: pre-emergence, 432 h, read-out: GI
# Echinochloa crus-galli [27] = assay: Herbicidal activity against Echinochloa crus-galli (barnyard grass) assessed as weed control in transplanted rice field at 20 g/ha treated after 7 days transplanting; format: functional
# [28] = Herbicidal activity against broadleaf weed assessed as weed control in transplanted rice field at 20 g/ha treated after 3 days transplanting; format: functional
# unidentified [29] = assay: Herbicidal activity against broadleaf weed assessed as weed control in transplanted rice field at 30 g/ha treated after 7 days transplanting; format: functional
# Cyperus serotinus [30] = assay: Herbicidal activity against Cyperus serotinus assessed as weed control in transplanted rice field at 30 g/ha treated after 10 days transplanting; format: functional
# Sagittaria pygmaea [31] = assay: Herbicidal activity against Sagittaria pygmaea assessed as weed control in transplanted rice field at 30 g/ha treated after 7 days transplanting; format: functional
# Sagittaria pygmaea [32] = assay: Herbicidal activity against Sagittaria pygmaea assessed as weed control in transplanted rice field at 30 g/ha treated after 10 days transplanting; format: functional
# Echinochloa crus-galli [33] = assay: Herbicidal activity against 1.5 leaf stage Echinochloa crus-galli (barnyard grass) assessed as growth inhibition treated 7 to 15 days after planting measured by postemergence activity assay; format: functional
# [34] = test system: Schoenoplectiella juncoides; assay: Herbicidal activity against Schoenoplectiella juncoides assessed as weed control in transplanted rice field at 30 g/ha treated after 3 days transplanting; format: functional
# Echinochloa crus-galli [35] = assay: Herbicidal activity against Echinochloa crus-galli (barnyard grass) assessed as weed control in transplanted rice field at 20 g/ha treated after 3 days transplanting; format: functional
# Sagittaria pygmaea [36] = assay: Herbicidal activity against Sagittaria pygmaea assessed as weed control in transplanted rice field at 30 g/ha treated after 3 days transplanting; format: functional
# Oryza sativa [37] = assay: Effect on Oryza sativa (rice) plant growth in transplanted Oryza sativa field assessed as plant height at 20 g/ha treated after 7 days transplanting; format: organism-based; conditions: in vivo, other, 168 h
# Sagittaria pygmaea [38] = assay: Herbicidal activity against Sagittaria pygmaea assessed as weed control in transplanted rice field at 20 g/ha treated after 7 days transplanting; format: functional
# Pontederia vaginalis [39] = assay: Herbicidal activity against Monochoria vaginalis assessed as weed control in transplanted rice field at 30 g/ha treated after 7 days transplanting; format: functional
# unidentified [40] = assay: Herbicidal activity against broadleaf weed assessed as weed control in transplanted rice field at 20 g/ha treated after 7 days transplanting; format: functional
# Pontederia vaginalis [41] = assay: Herbicidal activity against Monochoria vaginalis assessed as weed control in transplanted rice field at 30 g/ha treated after 10 days transplanting; format: functional
# [42] = Phytotoxicity against Oryza sativa (rice) assessed as growth inhibition under greenhouse at 5 g/ha measured after 18 days by preemergence activity assay; format: organism-based; conditions: in vivo, read-out: GI
# Oryza sativa [43] = assay: Effect on Oryza sativa (rice) plant growth in transplanted Oryza sativa field assessed as number of tillers at 30 g/ha treated after 10 days transplanting; format: organism-based; conditions: in vivo, other, 240 h
# Oryza sativa [44] = assay: Effect on Oryza sativa (rice) plant growth in transplanted Oryza sativa field assessed as number of tillers at 30 g/ha treated after 7 days transplanting; format: organism-based; conditions: in vivo, other, 168 h
# [45] = test system: Schoenoplectiella juncoides; assay: Herbicidal activity against Schoenoplectiella juncoides assessed as weed control in transplanted rice field at 20 g/ha treated after 3 days transplanting; format: functional
compound,measurement,setting,value
CCOC(=O)c1cnn(C)c1S(=O)(=O)NC(=O)Nc1nc(OC)cc(OC)n1 [PYRAZOSULFURON ETHYL],I75,Sagittaria pygmaea [1],1.9 gAi/ha
same,Activity,Echinochloa crus-galli [2],97%
same,inhibition of growth at 5 g/ha,Pontederia vaginalis [3],> 90%
same,Activity,Oryza sativa [4],102%
same,I75,Alisma canaliculatum [5],2.1 gAi/ha
same,Activity,Sagittaria pygmaea [6],95%
same,Activity,Cyperus serotinus [7],100%
same,I75,Eleocharis kuroguwai [8],7.4 gAi/ha
same,I75,Cyperus serotinus [9],1.9 gAi/ha
same,Activity,Oryza sativa [10],104%
same,Activity,Pontederia vaginalis [11],100%
same,Activity,Oryza sativa [12],99%
same,I75,Alisma canaliculatum [13],1.4 gAi/ha
same,Activity,Oryza sativa [14],105%
same,Activity,unidentified [15],100%
same,Activity,Echinochloa crus-galli [16],90%
same,Activity,Sagittaria pygmaea [17],95%
same,Activity,Echinochloa crus-galli [18],98%
same,I75,[19],8.3 gAi/ha
same,Activity,[20],100%
same,Activity,Oryza sativa [21],96%
same,Activity,Echinochloa crus-galli [22],85%
same,I75,Eleocharis kuroguwai [23],1.9 gAi/ha
same,Activity,Pontederia vaginalis [24],100%
same,I75,Sagittaria pygmaea [25],2.7 gAi/ha
same,inhibition of growth at 5 g/ha,[26],> 90%
same,Activity,Echinochloa crus-galli [27],98%
same,Activity,[28],100%
same,Activity,unidentified [29],100%
same,Activity,Cyperus serotinus [30],97%
same,Activity,Sagittaria pygmaea [31],98%
same,Activity,Sagittaria pygmaea [32],95%
same,I75,Echinochloa crus-galli [33],18 gAi/ha
same,Activity,[34],100%
same,Activity,Echinochloa crus-galli [35],98%
same,Activity,Sagittaria pygmaea [36],97%
same,Activity,Oryza sativa [37],107%
same,Activity,Sagittaria pygmaea [38],98%
same,Activity,Pontederia vaginalis [39],100%
same,Activity,unidentified [40],100%
same,Activity,Pontederia vaginalis [41],93%
same,inhibition at 432 h,[42],< 5%
same,Activity,Oryza sativa [43],101%
same,Activity,Oryza sativa [44],100%
same,Activity,[45],97%
